In brackets after ≈: the same amount, converted by molar mass.
Columns and labels:
blood-forming centers = assay: clinical safety of daunorubicin: blood formation; format: in vivo; settings: human treatment
[1] = tested on: Aerobacter aerogenes - ATCC 8308; assay: bacteriostatic activity, dilution method in nutritive broth; format: cell-based; settings: Klebsiella aerogenes, ATCC8308, read-out: Minimal bacteriostatic concentration
[2] = tested on: Brucella bronchiseptica (CN 387 - Wellcome Institute); assay: microbe, parasite or virus in culture; format: cell-based; settings: Bordetella bronchiseptica, read-out: Minimal bacteriostatic concentration
[3] = clinical dosage in acute leukaemias: maximum safe dose; settings: human, in vivo, iv, overall dosage of initial treatment, calculated per kg weight
Experimental: Treatment of acute leukaemias must be intensive and of short duration; depending on the case, it comprises one or more courses. In the lymphoblstic forms of leukaemia, the actual trend is to administer a daily dose of 1 mg/kg body weight of two to eight consecutive days, and to cease injections when the leucopenia reaches 1,000 to 1,500 units per cc. It will be recalled that characteristic changes in the medullary cytology fcilitate the conducting of the treatment and help in its adaptation to each particular case. […] It is, moreover, at the end of the aplastic phase, when the number of leucocytes is rising again, that adjustement of the theraputic dose is difficult. When, the day after medication was stopped the leucopenia worsens and the medullary blasts change, it is required to wait for regeneration of the blood before proceeding with a bone marrow test. If the lqucopenia is not accentuated and the medullary cytology remains high with persistence of blastic cells, a second course is undertaken. […] The overall dosage corresponding to the group of courses making up the initial treatment, such as has just been defined, is far from being uniform; calculated per kg weight, it sometimes reaches 20 mg, a dose of around 25 mg being considered the maximum safe dose. […]

[4] = tested on: Streptococcus faecalis (Thiercelin's enterococcus Fac.Phie); assay: bacteriostatic activity, dilution method in nutritive broth; format: cell-based; settings: read-out: Minimal bacteriostatic concentration
[5] = tested on: Pseudomonas aeruginosa (Bass strain - Institut Pasteur); assay: as above; format: cell-based; settings: read-out: Minimal bacteriostatic concentration
[6] = tested on: Salmonella schottmuelleri (paratyphi B) (Fougenc, Institut Pasteur); assay: as above; format: cell-based; settings: read-out: Minimal bacteriostatic concentration
[7] = tested on: Diplococcus pneumoniae (strain Til. Institut Pasteur); assay: as above; format: cell-based; settings: Streptococcus pneumoniae, read-out: Minimal bacteriostatic concentration
Klebsiella pneumoniae = assay: turbidimetric estimation of activity by comparison with a 9865 RP sample of known activity; format: cell-based; settings: unit = smallest quantity in 1 cc. of medium that inhibits growth of Klebsiella pneumoniae
Excerpt: The following non-limitative Examples illustrate the invention. […] This activity is expressed in units (u) per mg. for solid products and in units per cc. for solution. (The unit is defined as the smallest quantity of product which, dissolved in 1 cc. of an appropriate medium, inhibits the growth of Klebsiella pneumoniae under the conditions in question).

Sarcina alba (Fac.Phie) = assay: bacteriostatic activity, dilution method in nutritive broth; format: cell-based; settings: read-out: Minimal bacteriostatic concentration
[8] = tested on: Staphylococcus aureus strain Hb; assay: as above; format: cell-based; settings: read-out: Minimal bacteriostatic concentration
[9] = tested on: Bacillus subtilis (strain 3 R 9575, Merck - ATCC 9524); assay: as above; format: cell-based; settings: ATCC9524, read-out: Minimal bacteriostatic concentration
neuroblastoma = assay: utility in treating certain tumours; format: in vivo, human
[10] = tested on: Staphylococcus aureus strain 3486 R; assay: bacteriostatic activity, dilution method in nutritive broth; format: cell-based; settings: read-out: Minimal bacteriostatic concentration
[11] = tested on: Streptococcus viridans (Institut Pasteur); assay: as above; format: cell-based; settings: read-out: Minimal bacteriostatic concentration
[12] = tested on: Bacillus subtilis ATCC 6633; assay: as above; format: cell-based; settings: ATCC6633, read-out: Minimal bacteriostatic concentration
[13] = tested on: Sarcina lutea - ATCC 9341; assay: as above; format: cell-based; settings: Micrococcus luteus, ATCC9341, read-out: Minimal bacteriostatic concentration
[14] = tested on: Bacillus lactis aerogenes (Fac. Phie); assay: as above; format: cell-based; settings: read-out: Minimal bacteriostatic concentration
[15] = tested on: Mycobacterium phlei (Bacteriological Institute of Lyon); assay: as above; format: cell-based; settings: Mycolicibacterium phlei, read-out: Minimal bacteriostatic concentration
[16] = tested on: Staphylococcus aureus carbomycin resistant strain; assay: as above; format: cell-based; settings: read-out: Minimal bacteriostatic concentration
[17] = tested on: Corynebacterium pseudodiphtericum (Fac.Phie); assay: as above; format: cell-based; settings: read-out: Minimal bacteriostatic concentration
[18] = tested on: Salmonella typhimurium (Institut Pasteur); assay: as above; format: cell-based; settings: Salmonella enterica, read-out: Minimal bacteriostatic concentration
[19] = tested on: Shigella dysenteriae (Shiga L. - Institut Pasteur); assay: microbe, parasite or virus in culture; format: cell-based; settings: read-out: Minimal bacteriostatic concentration
[20] = tested on: Neisseria catarrhalis (Fac.Phie); assay: bacteriostatic activity, dilution method in nutritive broth; format: cell-based; settings: read-out: Minimal bacteriostatic concentration
Proteus X 19 = assay: as above; format: cell-based; settings: read-out: Minimal bacteriostatic concentration
[21] = tested on: Lactobacillus casei - ATCC 7469; assay: as above; format: cell-based; settings: Lacticaseibacillus casei, ATCC7469, read-out: Minimal bacteriostatic concentration
[22] = tested on: Staphylococcus aureus erythromycin resistant strain; assay: as above; format: cell-based; settings: read-out: Minimal bacteriostatic concentration
[23] = acute toxicity in the mouse; settings: in vivo, sc
lymphosarcoma = assay: utility in treating certain tumours; format: in vivo, human
[24] = tested on: Staphylococcus aureus actinomycin resistant strain; assay: bacteriostatic activity, dilution method in nutritive broth; format: cell-based; settings: read-out: Minimal bacteriostatic concentration
[25] = subacute toxicity in the mouse (one dose per day for 5 days); settings: in vivo
[26] = tested on: Proteus vulgaris (Fac. Phie); assay: bacteriostatic activity, dilution method in nutritive broth; format: cell-based; settings: read-out: Minimal bacteriostatic concentration
[27] = tested on: Streptococcus pyogenes Hemolyticus (strain Dig 7, Instut Pasteur); assay: as above; format: cell-based; settings: read-out: Minimal bacteriostatic concentration
[28] = tested on: Mycobacterium para-smegmatis (A 75 - Lausanne); assay: as above; format: cell-based; settings: read-out: Minimal bacteriostatic concentration
[29] = clinical safety of daunorubicin: heart; format: in vivo; settings: human treatment
[30] = tested on: Bacillus subtilis or Klebsiella pneumoniae; assay: paper chromatography with bioautography on seeded agar plates; format: cell-based; settings: paper chromatogram
Excerpt: The antibiotic is chromatographed on Arches No.302 paper impregnated with a pH 4.8 phosphate buffer, with n-butanol saturated with water, using descending development. The chromatogram is developed by bioautography on nutritive agar plates seeded with Bacillus subtilis or Klebsiella pneumoniae.

[31] = tested on: Gaffkya tetragena (Fac.Phie); assay: bacteriostatic activity, dilution method in nutritive broth; format: cell-based; settings: read-out: Minimal bacteriostatic concentration
nephroblastoma = assay: utility in treating certain tumours; format: in vivo, human
[32] = tested on: Micrococcus lysodeikticus; assay: bacteriostatic activity, dilution method in nutritive broth; format: cell-based; settings: Micrococcus luteus, read-out: Minimal bacteriostatic concentration
[33] = tested on: Klebsiella pneumoniae - ATCC 10,031; assay: as above; format: cell-based; settings: ATCC10, read-out: Minimal bacteriostatic concentration
[34] = tested on: Alcaligenes faecalis - ATCC 8749; assay: as above; format: cell-based; settings: ATCC8749, read-out: Minimal bacteriostatic concentration
Bacillus mycoides = assay: as above; format: cell-based; settings: read-out: Minimal bacteriostatic concentration
[35] = tested on: Escherichia coli - ATCC 9637; assay: as above; format: cell-based; settings: ATCC9637, read-out: Minimal bacteriostatic concentration
Excerpt: For each organism, the lowest concentration of substance has been determined which, under the defined condition, prevents all visible development in an appropriate nutritive broth. The results of various determinations are shown in Table VI, wherein the minimal bacteriostatic concentrations are expressed as micrograms of substance per cubic centimeter of experimental medium.

[36] = tested on: Bacillus cereus ATCC 6630; assay: as above; format: cell-based; settings: ATCC6630, read-out: Minimal bacteriostatic concentration
[37] = tested on: Staphylococcus aureus streptogramin resistant strain; assay: as above; format: cell-based; settings: read-out: Minimal bacteriostatic concentration
solubility = format: physicochemical
[38] = tested on: Staphylococcus aureus strain B3; assay: bacteriostatic activity, dilution method in nutritive broth; format: cell-based; settings: B3, read-out: Minimal bacteriostatic concentration
[39] = tested on: acute lymphoblastic leukemia; assay: utility in treating certain tumours; format: in vivo, human
[40] = tested on: Staphylococcus aureus strain Launoy 1; assay: bacteriostatic activity, dilution method in nutritive broth; format: cell-based; settings: LAUNOY1, strain Launoy 1 (tetracycline, streptomycin, chloramphenicol and penicillin resistant), read-out: Minimal bacteriostatic concentration
[41] = tested on: Staphylococcus aureus strain Launoy 2; assay: as above; format: cell-based; settings: LAUNOY2, strain Launoy 2 (tetracycline, streptomycin and penicillin resistant), read-out: Minimal bacteriostatic concentration
[42] = tested on: Bacillus subtilis (strain ZO 5 A, Fac. Phie); assay: as above; format: cell-based; settings: read-out: Minimal bacteriostatic concentration
[43] = tested on: Staphylococcus aureus strain 1142 R; assay: as above; format: cell-based; settings: read-out: Minimal bacteriostatic concentration
[44] = tested on: acute myeloblastic leukemia; assay: utility in treating certain tumours; format: in vivo, human
[45] = tested on: Staphylococcus aureus strain 662 R; assay: bacteriostatic activity, dilution method in nutritive broth; format: cell-based; settings: read-out: Minimal bacteriostatic concentration
[46] = tested on: Bacillus megatherium (NRRL B 1125); assay: as above; format: cell-based; settings: read-out: Minimal bacteriostatic concentration
[47] = tested on: Staphylococcus aureus novobiocin resistant strain; assay: as above; format: cell-based; settings: read-out: Minimal bacteriostatic concentration
[48] = tested on: Serratia marcescens (A. 476,Lausanne); assay: as above; format: cell-based; settings: read-out: Minimal bacteriostatic concentration
[49] = tested on: Streptococcus faecalis ATCC 9790; assay: as above; format: cell-based; settings: Enterococcus faecalis, ATCC9790, read-out: Minimal bacteriostatic concentration
[50] = tested on: Mycobacterium smegmatis - ATCC 607; assay: as above; format: cell-based; settings: Mycolicibacterium smegmatis, ATCC607, read-out: Minimal bacteriostatic concentration
[51] = tested on: Salmonella paratyphi A (Lacasse, Institut Pasteur); assay: as above; format: cell-based; settings: Salmonella enterica, read-out: Minimal bacteriostatic concentration
[52] = tested on: Pasteurella multocida (A. 125 - Institut Pasteur); assay: as above; format: cell-based; settings: read-out: Minimal bacteriostatic concentration
[53] = tested on: Bacillus brevis ATCC 8185; assay: as above; format: cell-based; settings: Brevibacillus brevis, ATCC8185, read-out: Minimal bacteriostatic concentration

SMILES: COc1cccc2c1C(=O)c1c(O)c3c(c(O)c1C2=O)C[C@@](O)(C(C)=O)C[C@@H]3O[C@H]1C[C@H](N)[C@H](O)[C@H](C)O1 [13057 RP daunorubicin, daunorubicin]
- action on the blood-forming centers (blood-forming centers): depressant action
- MIC [1]: 1000 mg/L (≈ 1900 µM)
- MIC [2]: 62 mg/L (≈ 118 µM)
- MTD [3]: ~25 mg/kg
- MIC [4]: 19 mg/L (≈ 36 µM)
- MIC [5]: 1000 mg/L (≈ 1900 µM)
- MIC [6]: 1000 mg/L (≈ 1900 µM)
- MIC [7]: 0.89 mg/L (≈ 1.69 µM)
- activity (Klebsiella pneumoniae): 160 μ/mg.
- MIC (Sarcina alba (Fac.Phie)): 3.3 mg/L (≈ 6.26 µM)
- MIC [8]: 5.3 mg/L (≈ 10 µM)
- MIC [9]: 1.8 mg/L (≈ 3.41 µM)
- utility in treating tumours (neuroblastoma): proved to be of utility
- MIC [10]: 5.2 mg/L (≈ 9.86 µM)
- MIC [11]: 43 mg/L (≈ 81.5 µM)
- MIC [12]: 1.2 mg/L (≈ 2.27 µM)
- MIC [13]: 1.2 mg/L (≈ 2.27 µM)
- MIC [14]: 120 mg/L (≈ 227 µM)
- MIC [15]: 5 mg/L (≈ 9.48 µM)
- MIC [16]: 5.3 mg/L (≈ 10 µM)
- MIC [17]: 1.7 mg/L (≈ 3.22 µM)
- MIC [18]: 1000 mg/L (≈ 1900 µM)
- MIC [19]: 2000 mg/L (≈ 3790 µM)
- MIC [20]: 2.2 mg/L (≈ 4.17 µM)
- MIC (Proteus X 19): 62 mg/L (≈ 118 µM)
- MIC [21]: 1.2 mg/L (≈ 2.27 µM)
- MIC [22]: 3.8 mg/L (≈ 7.2 µM)
- LD50 [23]: 47 mg/kg
- utility in treating tumours (lymphosarcoma): proved to be of utility
- MIC [24]: 5.8 mg/L (≈ 11 µM)
- LD50 ([25]; iv): 8.75 mg/kg
- LD50 ([25]; sc): 13.7 mg/kg
- MIC [26]: > 2000 mg/L
- MIC [27]: 1.6 mg/L (≈ 3.03 µM)
- MIC [28]: 2.2 mg/L (≈ 4.17 µM)
- cardiac complications [29]: sometimes accompanied by cardiac complications
- active substance by bioautography [30]: active
- MIC [31]: 6.7 mg/L (≈ 12.7 µM)
- utility in treating tumours (nephroblastoma): proved to be of utility
- MIC [32]: 2.5 mg/L (≈ 4.74 µM)
- MIC [33]: 8.9 mg/L (≈ 16.9 µM)
- MIC [34]: 1.8 mg/L (≈ 3.41 µM)
- MIC (Bacillus mycoides): 1.8 mg/L (≈ 3.41 µM)
- MIC [35]: 500 mg/L (≈ 948 µM)
- MIC [36]: 2.2 mg/L (≈ 4.17 µM)
- MIC [37]: 1.9 mg/L (≈ 3.6 µM)
- solubility in alcohols (solubility; alcohols): soluble
- solubility in benzene (solubility; benzene): practically insoluble
- solubility in chloroform (solubility; chloroform): soluble
- solubility in diethyl ether (solubility; diethyl ether): practically insoluble
- solubility in ketones (solubility; ketones): very slighly soluble
- solubility in water (solubility; water): very slighly soluble
- MIC [38]: 5.2 mg/L (≈ 9.86 µM)
- utility in treating tumours [39]: proved to be of utility
- MIC [40]: 7.1 mg/L (≈ 13.5 µM)
- MIC [41]: 4.8 mg/L (≈ 9.1 µM)
- MIC [42]: 1.5 mg/L (≈ 2.84 µM)
- MIC [43]: 2.1 mg/L (≈ 3.98 µM)
- utility in treating tumours [44]: proved to be of utility
- MIC [45]: 6.3 mg/L (≈ 11.9 µM)
- MIC [46]: 1.3 mg/L (≈ 2.46 µM)
- MIC [47]: 3.9 mg/L (≈ 7.39 µM)
- MIC [48]: 120 mg/L (≈ 227 µM)
- MIC [49]: 30 mg/L (≈ 56.9 µM)
- MIC [50]: 1.2 mg/L (≈ 2.27 µM)
- MIC [51]: 16 mg/L (≈ 30.3 µM)
- MIC [52]: 1.8 mg/L (≈ 3.41 µM)
- MIC [53]: 1.4 mg/L (≈ 2.65 µM)

— patent US3989598A (priority 1962, dated 1976)
